Experimental findings from ChEMBL document CHEMBL4673368, “Ophiobolin Sesterterpenoids and Farnesylated Phthalide Derivatives from the Deep Sea Cold-Seep-Derived Fungus Aspergillus insuetus SD-512” (2020) are described below.

Common to all, as to assay type: functional
In one experiment the test system is Vibrio anguillarum. The experiment in a line: Antibacterial activity against Vibrio anguillarum QDIO-9 assessed as reduction in microbial growth after 24 hrs by serial dilution method.
A further experiment relates to Vibrio alginolyticus. The experiment in a line: Antibacterial activity against Vibrio alginolyticus QDIO-7 assessed as reduction in microbial growth after 24 hrs by serial dilution method.
For a further experiment, the system named is Aeromonas hydrophila. The experiment can be described thus: Antibacterial activity against Aeromonas hydrophila QDIO-10 assessed as reduction in microbial growth after 24 hrs by serial dilution method.
For the next experiment, the system named is Pseudomonas aeruginosa. The experiment can be described thus: Antibacterial activity against Pseudomonas aeruginosa QDIO-2 assessed as reduction in microbial growth after 24 hrs by serial dilution method.
A further experiment has as its system Vibrio parahaemolyticus. The experiment can be described thus: Antibacterial activity against Vibrio parahaemolyticus QDIO-5 assessed as reduction in microbial growth after 24 hrs by serial dilution method.
For another experiment, the system named is Escherichia coli. The experiment can be described thus: Antibacterial activity against Escherichia coli QDIO-1 assessed as reduction in microbial growth after 24 hrs by serial dilution method.
Another experiment relates to Edwardsiella tarda. The experiment in a line: Antibacterial activity against Edwardsiella tarda QDIO-8 assessed as reduction in microbial growth after 24 hrs by serial dilution method.
The subject of another experiment is Vibrio vulnificus. The experiment in a line: Antibacterial activity against Vibrio vulnificus QDIO-4 assessed as reduction in microbial growth after 24 hrs by serial dilution method.

Turning to `CC(C)=C/C=C\[C@H](C)[C@H]1CC[C@]2(C)C[C@@H]3C(C)=CC(=O)[C@H]3/C(C=O)=C\C[C@@H]12`, the MIC was 32 µg/mL with Vibrio anguillarum; 4 µg/mL in the experiment with Vibrio alginolyticus; 8 µg/mL in the experiment with Aeromonas hydrophila; 8 µg/mL in the experiment with Pseudomonas aeruginosa; 8 µg/mL in the experiment with Vibrio parahaemolyticus; 16 µg/mL with Escherichia coli. Further, the MIC with Edwardsiella tarda and with Vibrio vulnificus was 8 µg/mL in each case.

In the case of `CC(C)=C/C=C\[C@H](C)[C@H]1CC[C@]2(C)C[C@@H]3C(C)=CC(=O)[C@H]3/C(CO)=C\C[C@@H]12`, the minimal inhibitory concentration (MIC) in the experiment on Vibrio anguillarum was 32 µg/mL; with Vibrio alginolyticus, 4 µg/mL; with Aeromonas hydrophila, 8 µg/mL; in the experiment on Pseudomonas aeruginosa, 8 µg/mL; in the experiment with Vibrio parahaemolyticus, 8 µg/mL; in the experiment with Escherichia coli, 16 µg/mL. Further, the MIC in the experiment on Edwardsiella tarda and in the experiment with Vibrio vulnificus was 8 µg/mL in each case.

On to `CC(C)=C/C=C\[C@H](C)[C@H]1CC[C@]2(C)C[C@H]3[C@@H]4/C(=C\C[C@@H]12)CO[C@]4(O)C[C@@]3(C)O`, for which the minimal inhibitory concentration (MIC) in the experiment on Vibrio anguillarum, with Vibrio alginolyticus, in the experiment on Aeromonas hydrophila, in the experiment with Pseudomonas aeruginosa, with Vibrio parahaemolyticus and with Escherichia coli was over 32 µg/mL in each case. Besides, the MIC with Edwardsiella tarda and with Vibrio vulnificus was over 32 µg/mL in each case.

In the case of `CC(C)=CCC[C@H](C)[C@H]1CC[C@]2(C)C[C@H]3[C@@H]4/C(=C\C[C@@H]12)CO[C@]4(O)C[C@@]3(C)O`, the MIC with Vibrio anguillarum, in the experiment with Vibrio alginolyticus, in the experiment with Aeromonas hydrophila, with Pseudomonas aeruginosa, in the experiment with Vibrio parahaemolyticus and in the experiment with Escherichia coli was over 32 µg/mL throughout. The MIC in the experiment on Edwardsiella tarda and in the experiment on Vibrio vulnificus was over 32 µg/mL each time.

Consider `COc1cc2c(c(O)c1OC/C=C(\C)CC/C=C(\C)CCCC(C)(C)OC(C)=O)COC2=O`, for which the MIC was over 32 µg/mL in the experiment with Vibrio anguillarum; 4 µg/mL in the experiment with Vibrio alginolyticus; 8 µg/mL in the experiment with Aeromonas hydrophila; 8 µg/mL in the experiment on Pseudomonas aeruginosa; 8 µg/mL in the experiment with Vibrio parahaemolyticus; 32 µg/mL with Escherichia coli. Also, the MIC in the experiment with Edwardsiella tarda and with Vibrio vulnificus was 4 µg/mL throughout.

On to `CO[C@]12C[C@@](C)(O)[C@H]3C[C@@]4(C)CC[C@H]([C@@H](C)/C=C\C=C(C)C)[C@@H]4C/C=C(/CO1)[C@@]32O`, for which the MIC in the experiment on Vibrio anguillarum, in the experiment on Vibrio alginolyticus, in the experiment on Aeromonas hydrophila, in the experiment on Pseudomonas aeruginosa, with Vibrio parahaemolyticus and in the experiment on Escherichia coli was over 32 µg/mL each time. In addition, the minimal inhibitory concentration (MIC) in the experiment with Edwardsiella tarda and in the experiment on Vibrio vulnificus was over 32 µg/mL in each case.

In the case of `COc1cc2c(c(O)c1OC/C=C(\C)CC/C=C(\C)CCC=C(C)C)COC2=O`, the MIC is over 32 µg/mL in the experiment with Vibrio anguillarum; 4 µg/mL in the experiment with Vibrio alginolyticus; 8 µg/mL in the experiment on Aeromonas hydrophila; 16 µg/mL with Pseudomonas aeruginosa; 16 µg/mL in the experiment on Vibrio parahaemolyticus; 32 µg/mL with Escherichia coli. For the same compound, the values for the MIC in the experiment on Edwardsiella tarda and with Vibrio vulnificus were 8 µg/mL and 4 µg/mL, respectively.

In the case of `CC(C)=CCC[C@H](C)[C@H]1CC[C@]2(C)C[C@@H]3C(C)=CC(=O)[C@H]3/C(CO)=C\C[C@@H]12`, the MIC with Vibrio anguillarum, with Vibrio alginolyticus, in the experiment on Aeromonas hydrophila, in the experiment with Pseudomonas aeruginosa, with Vibrio parahaemolyticus and in the experiment with Escherichia coli was over 32 µg/mL throughout. Further, the MIC with Edwardsiella tarda and with Vibrio vulnificus was over 32 µg/mL in each case.

With `CC(C)=CCC[C@H](C)[C@H]1CC[C@]2(C)C[C@@H]3C(C)=CC(=O)[C@H]3/C(C=O)=C\C[C@@H]12`, the minimum inhibitory concentration (MIC) in the experiment with Vibrio anguillarum, with Vibrio alginolyticus, in the experiment on Aeromonas hydrophila, with Pseudomonas aeruginosa, in the experiment with Vibrio parahaemolyticus and in the experiment on Escherichia coli was over 32 µg/mL throughout. Moreover, the minimal inhibitory concentration (MIC) with Edwardsiella tarda and in the experiment with Vibrio vulnificus was over 32 µg/mL throughout.

With `COc1cc2c(c(O)c1OC/C=C(\C)CC/C=C(\C)CCCC(C)(C)O)COC2=O`, the minimum inhibitory concentration (MIC) is over 32 µg/mL in the experiment with Vibrio anguillarum; 8 µg/mL with Vibrio alginolyticus; 16 µg/mL in the experiment with Aeromonas hydrophila; 16 µg/mL in the experiment with Pseudomonas aeruginosa; 16 µg/mL in the experiment on Vibrio parahaemolyticus; 32 µg/mL in the experiment with Escherichia coli. Further, the results for the MIC with Edwardsiella tarda and in the experiment on Vibrio vulnificus were 8 µg/mL and 4 µg/mL, respectively.

Take `CC(C)=CCC[C@H](C)[C@H]1CC[C@]2(C)C[C@H]3[C@H]4/C(=C\C[C@@H]12)CO[C@@]4(O)C[C@@]3(C)O`: the MIC was determined as 32 µg/mL in the experiment on Vibrio anguillarum; 4 µg/mL with Vibrio alginolyticus; 4 µg/mL in the experiment on Aeromonas hydrophila; 8 µg/mL with Pseudomonas aeruginosa; 4 µg/mL in the experiment with Vibrio parahaemolyticus; 4 µg/mL in the experiment on Escherichia coli. Further, the figures for the minimum inhibitory concentration (MIC) with Edwardsiella tarda and in the experiment on Vibrio vulnificus were 4 µg/mL and 8 µg/mL, respectively.

On to `O=C(N[C@H](CO)[C@H](O)c1ccc([N+](=O)[O-])cc1)C(Cl)Cl` [CHLORAMPHENICOL], for which the MIC came out at 0.5 µg/mL in the experiment with Vibrio anguillarum; 0.5 µg/mL in the experiment with Vibrio alginolyticus; 1 µg/mL with Aeromonas hydrophila; 1 µg/mL with Pseudomonas aeruginosa; 1 µg/mL with Vibrio parahaemolyticus; 1 µg/mL in the experiment on Escherichia coli. In addition, the MIC in the experiment with Edwardsiella tarda and in the experiment on Vibrio vulnificus was 0.5 µg/mL in each case.

What is called MIC is the smallest concentration in the dilution series that meets the test's criterion for growth inhibition.
